This note sets out measurements from paper PMC3335777 (Journal of the American Chemical Society, 2012).

In experiment [1] the target is T1, FabF (Staphylococcus aureus, UniProt Q8NXE1).
T1 sequence (Q8NXE1 1-414): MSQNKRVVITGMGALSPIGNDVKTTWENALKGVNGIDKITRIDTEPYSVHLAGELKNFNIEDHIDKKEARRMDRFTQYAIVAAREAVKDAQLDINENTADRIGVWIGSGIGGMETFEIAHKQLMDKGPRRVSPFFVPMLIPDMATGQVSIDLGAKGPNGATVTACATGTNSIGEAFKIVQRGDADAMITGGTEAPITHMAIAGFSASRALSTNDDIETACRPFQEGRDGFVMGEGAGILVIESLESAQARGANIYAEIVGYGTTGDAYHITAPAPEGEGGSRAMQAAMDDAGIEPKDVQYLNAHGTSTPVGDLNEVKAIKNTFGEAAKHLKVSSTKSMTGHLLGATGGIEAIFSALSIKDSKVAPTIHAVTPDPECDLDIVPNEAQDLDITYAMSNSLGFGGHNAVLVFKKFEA
In kind it is biochemical.

Experiment [2] has as its target T1, FabF. The experiment can be described thus: […]-malonyl-CoA FASII elongation assay. In kind it is biochemical.

Read-outs that look alike come from different tables or passages of the source.

Consider fasamycin A [compound 1], for which, on FabF [1], the IC50 (as a rule, the concentration needed to halve the response being measured) was 50 µg/mL.

On to fasamycin B [compound 2], for which the IC50 against FabF [2] was found to be 80 µg/mL.
